Test results: patent US8362001B2, “Azetidinyl diamides as monoacylglycerol lipase inhibitors” (Janssen Pharmaceutica NV, priority 2009, dated 2013)
Numbering of substitutions follows the chain as printed.

How the values were obtained:
[1] = target: T1, purified wild type MGL (wt-MGLL 6H-11-313) (Homo sapiens, UniProt Q99685); assay: biochemical
T1 sequence (Q99685 1-303): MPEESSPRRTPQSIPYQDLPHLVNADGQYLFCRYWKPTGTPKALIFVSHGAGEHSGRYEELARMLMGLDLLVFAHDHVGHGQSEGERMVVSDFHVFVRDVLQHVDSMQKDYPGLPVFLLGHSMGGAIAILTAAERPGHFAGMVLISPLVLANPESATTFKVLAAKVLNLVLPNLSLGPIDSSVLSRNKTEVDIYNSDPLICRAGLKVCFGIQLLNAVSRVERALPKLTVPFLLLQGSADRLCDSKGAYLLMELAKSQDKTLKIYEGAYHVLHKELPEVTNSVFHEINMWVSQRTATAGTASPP

mutant MGL = target: T2, mutant MGL (Homo sapiens, UniProt Q99685, L169S/L176S); assay: MGL ThermoFluor assay - mutant
T2 sequence (Q99685 1-303 L169S/L176S): T1 sequence (Q99685 1-303) with L169S, L176S
Method: The ThermoFluor (TF) assay is a 384-well plate-based binding assay that measures thermal stability of proteins^1,2. […] TF dye used in all experiments was 1,8-ANS (Invitrogen: A-47). Final TF assay conditions used for MGL studies were 0.07 mg/ml of mutant MGL, 100 μM ANS, 200 mM NaCl, 0.001% Tween-20 in 50 mM PIPES (pH=7.0).
Screening compound plates contained 100% DMSO compound solutions at a single concentration. […] Columns 12 and 24 were used as DMSO reference and contained no compound. […] Following compound dispension, protein and dye solutions were added to achieve the final assay volume of 3 μL.
Bar-coded assay plates were robotically loaded onto a thermostatically controlled PCR-type thermal block and then heated from 40 to 90° C. degrees at a ramp-rate of 1° C./min for all experiments. Fluorescence was measured by continuous illumination with UV light (Hamamatsu LC6), supplied via fiber optics and filtered through a band-pass filter (380-400 nm; >60D cutoff). Fluorescence emission of the entire 384-well plate was detected by measuring light intensity using a CCD camera (Sensys, Roper Scientific) filtered to detect 500±25 nm, resulting in simultaneous and independent readings of all 384 wells. A single image with 20-sec exposure time was collected at each temperature, and the sum of the pixel intensity in a given area of the assay plate was recorded vs temperature and fit to standard equations to yield the Tm^1. • 1.
For some experiments, quantitative NMR spectroscopy (qNMR) was used to measure concentration of the initial 100% DMSO compound solutions and, using the same fitting method, qKd values were determined

MGL = target: T3, MGL (Rattus norvegicus, UniProt Q8R431); assay: 2-AG accumulation assay in rat brain homogenate; assay type: biochemical; conditions: compound 1 μM, percent vehicle = 2-AG accumulation with compound / in vehicle x 100, read-out: Rat Brain 2AG % VehCntrl (%) @1 μM
T3 construct: one g rat brain was homogenized using a Polytron homogenizer; from tissue; host or cells: rat brain homogenate
T3 sequence (Q8R431 1-303): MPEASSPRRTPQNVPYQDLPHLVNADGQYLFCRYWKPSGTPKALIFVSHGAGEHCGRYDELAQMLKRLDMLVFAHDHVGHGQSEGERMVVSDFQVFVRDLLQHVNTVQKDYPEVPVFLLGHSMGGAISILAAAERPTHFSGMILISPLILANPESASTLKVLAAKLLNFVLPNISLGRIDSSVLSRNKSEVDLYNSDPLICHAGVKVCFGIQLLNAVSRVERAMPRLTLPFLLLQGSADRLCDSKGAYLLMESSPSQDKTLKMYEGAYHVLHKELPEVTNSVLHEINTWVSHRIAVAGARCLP

rat = assay: CFA-induced paw radiant heat hypersensitivity; assay type: in vivo; conditions: 30 mg/kg p.o., HPβCD, last time point 300 min, group mean values
Method: Each rat was placed in a test chamber on a warm glass surface and allowed to acclimate for approximately 10 min. A radiant thermal stimulus (beam of light) was then focused through the glass onto the plantar surface of each hind paw in turn. The thermal stimulus was automatically shut off by a photoelectric relay when the paw was moved or when the cut-off time was reached (20 sec for radiant heat at ˜5 amps). An initial (baseline) response latency to the thermal stimulus was recorded for each animal prior to the injection of complete Freund's adjuvant (CFA). 24 h following intraplantar CFA injection, the response latency of the animal to the thermal stimulus was then re-evaluated and compared to the animal's baseline response time. […] Post-compound treatment withdrawal latencies were assessed at fixed time intervals, typically 30, 60, 120, 180, and 300 min.
The percent reversal (% R) of hypersensitivity was calculated in one of two different ways: 1) using group mean values or 2) using individual animal values. […]
Method 1. For all compounds, the % R of hypersensitivity was calculated using the mean value for groups of animals at each time point according to the following formula: % reversal=[(group treatment response−group CFA response)/(group baseline response−group CFA response)]×100 Results are given for the maximum % reversal observed for each compound at any time point tested. […]

| Compound | IC50 [1] | Kd (mutant MGL) | other results |
| --- | --- | --- | --- |
| O=C(c1ccccc1)N1CCN(C2CN(C(=O)c3ccc4c(c3)c(F)cn4-c3ccc(F)cc3)C2)CC1 [Cpd 574, 3-Fluoro-1-(4-fluorophenyl)-5-({3-[4-(phenylcarbonyl)piperazin-1-yl]azetidin-1-yl}carbonyl)-1H-indole] | 49 nM | 48 nM | – |
| O=C(c1ccc[nH]1)N1CC(N2CCN(C(=O)c3cc4cc(C(F)(F)F)ccc4s3)CC2)C1 [Cpd 722, 1-[1-(1H-Pyrrol-2-ylcarbonyl)azetidin-3-yl]-4-{[5-(trifluoromethyl)-1-benzothiophen-2-yl]carbonyl}piperazine] | – | – | activity at 1 µM (MGL): 240% |
| C/C(=C\c1ccc(Cl)cc1)c1c(C)c(C(=O)N2CC(N3CCN(C(=O)c4nccs4)CC3)C2)nn1-c1ccc(Cl)cc1Cl [Cpd 1010] | – | – | inhibition in vivo at 30 mg/kg (rat; Rattus norvegicus, po, 5 h, read-out: Method 1: peak % reversal): 23.4% |
| O=C(c1ccc(-c2cccc(C(F)(F)F)c2)c(Cl)c1)N1CC(N2CCN(C(=O)c3cscn3)CC2)C1 [Cpd 1102] | – | – | Method 1: peak % reversal (rat): 38% |
| Cc1nc(C(=O)N2CCN(C3CN(C(=O)c4ccc(-c5cccc(C(F)(F)F)c5)cc4)C3)CC2)cs1 [Cpd 1217, 1-[(2-Methyl-1,3-thiazol-4-yl)carbonyl]-4-(1-{[3′-(trifluoromethyl)biphenyl-4-yl]carbonyl}azetidin-3-yl)piperazine] | 220 nM | 104 nM | – |
| Cc1cn(-c2ccc(F)c(F)c2)c2ccc(C(=O)N3CCN(C4CN(C(=O)c5ccc[nH]5)C4)CC3)cc12 [Cpd 1219, 1-(3,4-Difluorophenyl)-3-methyl-5-({4-[1-(1H-pyrrol-2-ylcarbonyl)azetidin-3-yl]piperazin-1-yl}carbonyl)-1H-indole] | 235 nM | 25 nM | – |
| O=C(c1ccc(-c2cccc(C(F)(F)F)c2)cc1)N1CC(N2CCN(C(=O)c3ccc(F)s3)CC2)C1 [Cpd 1336, 1-[(5-Fluorothiophen-2-yl)carbonyl]-4-(1-{[3′-(trifluoromethyl)biphenyl-4-yl]carbonyl}azetidin-3-yl)piperazine] | < 5 nM | 2 nM | – |
| O=C(c1ccc2c(ccn2-c2ccc(C(F)(F)F)cc2)c1)N1CCN(C2CN(C(=O)c3cscn3)C2)CC1 [Cpd 1337, 5-({4-[1-(1,3-Thiazol-4-ylcarbonyl)azetidin-3-yl]piperazin-1-yl}carbonyl)-1-[4-(trifluoromethyl)phenyl]-1H-indole] | < 5 nM | 40 nM | – |
